In US20050112260A1, “Monatin tabletop sweetener compositions and methods of making same” (Cargill, Inc., priority 2003, published 2005):

How the values were obtained:
[1] = Sensory stability of monatin and aspartame at pH 2.5, 3.0, 4.0 at 40° C. (sweetness vs sucrose standards, panel n=8); assay type: physicochemical; conditions: for Rate constant (k; day^−1) of sweetness loss: pseudo-first order assumed
Experimental: The sensory stability of monatin solutions prepared at pH 2.5, 3.0 and 4.0 and stored at 40° C. was monitored for 100 days. Loss of sweetness from these solutions was compared with the losses of sweetness from aspartame solutions prepared and stored under identical conditions.
The sensory stability of monatin (8% SEV, ˜55 ppm, synthetic blend containing approximately 96% of the 2R,4R/2S, 4S enantiometric pair and 4% of the 2R,4S/2S,4R enantiometric pair) in phosphate/citrate buffers having a pH of 2.5, 3.0, and 4.0 was examined after storage at 40° C. The stability of monatin was compared to that of aspartame (400 ppm) in the same buffers. Three sucrose reference solutions were prepared in the same phosphate/citrate buffers as the monatin and aspartame solutions. All prepared solutions were stored in the dark.
• pH2.5 Phosphoric acid (75% solution) 0.127% (w/v) • Tri-sodium citrate monohydrate 0.005% (w/v) • pH3.0 Phosphoric acid (75% solution) 0.092% (w/v) • Tri-sodium citrate monohydrate 0.031% (w/v) • pH4.0 Phosphoric acid (75% solution) 0.071% (w/v) • Tri-sodium citrate monohydrate 0.047% (w/v)
The sweetness of each sweetener relative to sucrose was assessed in duplicate by a small panel (n=8) of trained sensory evaluators experienced in the sweetness estimation procedure. All samples (in the same buffers) were served in duplicate at a temperature of 22° C.±1° C. Monatin (test) solutions, coded with 3 digit random number codes were presented individually to panelists, in random order. Sucrose reference standards, ranging from 4.0-10.0% (w/v) sucrose, increasing in steps of 0.5% (w/v) sucrose were also provided. Panelists were asked to estimate sweetness by comparing the sweetness of the test solution to the sucrose standards. This was carried out by taking 3 sips of the test solution, followed by a sip of water, followed by 3 sips of sucrose standard followed by a sip of water, etc. Panelists were encouraged to estimate the sweetness to one decimal place, e.g., 6.8, 8.5. A five minute rest period was imposed between evaluating the test solutions. Panelists were also asked to rinse well and eat a cracker to reduce any potential carry over effects.
If a pseudo-first order breakdown reaction is assumed, a plot of logn percentage retention versus time (logn% RTN v. t) allows estimation of the half-life (t½) and rate constant (k) of sweetness loss under any given set of conditions. In so doing, the kinetics of monatin and aspartame sweetness loss may be summarized as follows in Table 13.

[2] = Quantitative sweetness synergy of monatin in blends with other sweeteners; assay type: in vivo
[3] = Stability of monatin at high temperature (80° C.) and neutral pH, LC-MS; assay type: physicochemical; conditions: pH 7, 75 ppm, after 7-35 days
Experimental: A 100 milliliter solution of 75 ppm monatin at pH 7 was used as a stock solution. The synthetic monatin sample contained approximately 96% of the 2R,4R/2S,4S enantiomeric pair and 4% of the 2R,4S/2S,4R enantiomeric pair. Samples were incubated at 80° C. and pH 7 for the duration of the experiment and samples were withdrawn at 0, 1, 2, 3, 4 hours and 1, 2, 4, 7, 14, 21 and 35 days. All experimental conditions were run in duplicate.
Separation and Quantification Using LC-MS using Reverse Phase Chromatography A response curve was established for both detected diastereomer peaks of the synthetic monatin. A range of 5-150 ppm was bracketed with the synthetic monatin standard dissolved in DI water. Separation of the two diastereomer peaks was accomplished using a 3.9×1 50 mm Novapak C18 (Waters Corporation) HPLC column. Ultraviolet-Visible (UV) and Mass Spectrometer (MS) detectors were used in series for detection and quantitation. Monatin and its lactone peak each have a UVmax at 279 nm that aided in precise detection. Quantification was done by acquiring Selected Ion Monitoring (SIM) scan of 293.3 m/z and 275.3 m/z in positive-ion electrospray mode.

[4] = Stability of monatin at pH 3 with increasing temperatures; assay type: physicochemical
Experimental: A sample of synthetic monatin was subjected to pH 3 at temperatures of 25° C., 50° C. and 100° C. At room temperature and pH 3, a 14% loss in monatin was observed over a period of 48 hours. This loss was attributed to lactone formation. At 50° C. and pH 3, a 23% loss in monatin was observed over a period of 48 hours. This loss was attributed to lactone formation and the buildup of an unknown compound after about 15.5 minutes. […] The major detectable component was an unknown at 15.5 minutes.

[5] = pH 2.5, 40° C., day 1, monatin ~55 ppm
[6] = pH 2.5, 40° C., day 2, monatin ~55 ppm
[7] = pH 2.5, 40° C., day 3, monatin ~55 ppm
[8] = pH 2.5, 40° C., day 4, monatin ~55 ppm
[9] = pH 2.5, 40° C., day 7, monatin ~55 ppm
[10] = pH 2.5, 40° C., day 8, monatin ~55 ppm
[11] = pH 2.5, 40° C., day 9, monatin ~55 ppm
[12] = pH 2.5, 40° C., day 11, monatin ~55 ppm
[13] = pH 2.5, 40° C., day 50, monatin ~55 ppm
[14] = pH 2.5, 40° C., day 100, monatin ~55 ppm
[15] = pH 3.0, 40° C., day 1, monatin ~55 ppm
[16] = pH 3.0, 40° C., day 2, monatin ~55 ppm
[17] = pH 3.0, 40° C., day 3, monatin ~55 ppm
[18] = pH 3.0, 40° C., day 4, monatin ~55 ppm
[19] = pH 3.0, 40° C., day 7, monatin ~55 ppm
[20] = pH 3.0, 40° C., day 8, monatin ~55 ppm
[21] = pH 3.0, 40° C., day 9, monatin ~55 ppm
[22] = pH 3.0, 40° C., day 11, monatin ~55 ppm
[23] = pH 3.0, 40° C., day 50, monatin ~55 ppm
[24] = pH 3.0, 40° C., day 100, monatin ~55 ppm
[25] = pH 4.0, 40° C., day 3, monatin ~55 ppm
[26] = pH 4.0, 40° C., day 8, monatin ~55 ppm
[27] = pH 4.0, 40° C., day 11, monatin ~55 ppm
[28] = pH 4.0, 40° C., day 17, monatin ~55 ppm
[29] = pH 4.0, 40° C., day 24, monatin ~55 ppm
[30] = pH 4.0, 40° C., day 50, monatin ~55 ppm
[31] = pH 4.0, 40° C., day 100, monatin ~55 ppm

## NC(CC(O)(Cc1c[nH]c2ccccc12)C(=O)O)C(=O)O (stereo not drawn) [Monatin, 2-hydroxy-2-(indol-3-ylmethyl)-4-aminoglutaric acid]
[1]; pH 2.5, 40° C., day 0, monatin ~55 ppm
  SEV Monatin (% sucrose): 7.35 % sucrose
[1]; [5]
  Retention of Monatin Sweetness (%): 93.3%
  SEV Monatin (% sucrose): 6.86 % sucrose
[1]; [6]
  Retention of Monatin Sweetness (%): 91.2%
  SEV Monatin (% sucrose): 6.70 % sucrose
[1]; [7]
  Retention of Monatin Sweetness (%): 88.4%
  SEV Monatin (% sucrose): 6.50 % sucrose
[1]; [8]
  Retention of Monatin Sweetness (%): 85.2%
  SEV Monatin (% sucrose): 6.26 % sucrose
[1]; [9]
  Retention of Monatin Sweetness (%): 82.7%
  SEV Monatin (% sucrose): 6.08 % sucrose
[1]; [10]
  Retention of Monatin Sweetness (%): 81.4%
  SEV Monatin (% sucrose): 5.98 % sucrose
[1]; [11]
  Retention of Monatin Sweetness (%): 80.1%
  SEV Monatin (% sucrose): 5.89 % sucrose
[1]; [12]
  Retention of Monatin Sweetness (%): 78.6%
  SEV Monatin (% sucrose): 5.78 % sucrose
[1]; [13]
  Retention of Monatin Sweetness (%): 62.7%
  SEV Monatin (% sucrose): 4.61 % sucrose
[1]; [14]
  Retention of Monatin Sweetness (%): 28.6%
  SEV Monatin (% sucrose): 2.10 % sucrose
[1]; pH 2.5, 40° C.
  Rate constant (k; day^−1) of sweetness loss: 0.011 day⁻¹
[1]; pH 2.5, 100 days storage at 40° C.
  Sweetness Retained (%): 29%
[1]; pH 3.0, 40° C., day 0, monatin ~55 ppm
  SEV Monatin (% sucrose): 7.08 % sucrose
[1]; [15]
  Retention of Monatin Sweetness (%): 99.6%
  SEV Monatin (% sucrose): 7.05 % sucrose
[1]; [16]
  Retention of Monatin Sweetness (%): 93.2%
  SEV Monatin (% sucrose): 6.60 % sucrose
[1]; [17]
  Retention of Monatin Sweetness (%): 91.4%
  SEV Monatin (% sucrose): 6.47 % sucrose
[1]; [18]
  Retention of Monatin Sweetness (%): 91.6%
  SEV Monatin (% sucrose): 6.49 % sucrose
[1]; [19]
  Retention of Monatin Sweetness (%): 85.3%
  SEV Monatin (% sucrose): 6.04 % sucrose
[1]; [20]
  Retention of Monatin Sweetness (%): 83.8%
  SEV Monatin (% sucrose): 5.93 % sucrose
[1]; [21]
  Retention of Monatin Sweetness (%): 83.1%
  SEV Monatin (% sucrose): 5.88 % sucrose
[1]; [22]
  Retention of Monatin Sweetness (%): 83.1%
  SEV Monatin (% sucrose): 5.88 % sucrose
[1]; [23]
  Retention of Monatin Sweetness (%): 72.3%
  SEV Monatin (% sucrose): 5.12 % sucrose
[1]; [24]
  Retention of Monatin Sweetness (%): 57.9%
  SEV Monatin (% sucrose): 4.10 % sucrose
[1]; pH 3.0, 40° C.
  Rate constant (k; day^−1) of sweetness loss: 0.006 day⁻¹
[1]; pH 3.0, 100 days storage at 40° C.
  Sweetness Retained (%): 58%
[1]; pH 4.0, 40° C., day 0, monatin ~55 ppm
  SEV Monatin (% sucrose): 7.40 % sucrose
[1]; [25]
  Retention of Monatin Sweetness (%): 95.7%
  SEV Monatin (% sucrose): 7.08 % sucrose
[1]; [26]
  Retention of Monatin Sweetness (%): 86.8%
  SEV Monatin (% sucrose): 6.42 % sucrose
[1]; [27]
  Retention of Monatin Sweetness (%): 85.9%
  SEV Monatin (% sucrose): 6.36 % sucrose
[1]; [28]
  Retention of Monatin Sweetness (%): 82.4%
  SEV Monatin (% sucrose): 6.10 % sucrose
[1]; [29]
  Retention of Monatin Sweetness (%): 84.5%
  SEV Monatin (% sucrose): 6.25 % sucrose
[1]; [30]
  Retention of Monatin Sweetness (%): 82.9%
  SEV Monatin (% sucrose): 6.14 % sucrose
[1]; [31]
  Retention of Monatin Sweetness (%): 78.4%
  SEV Monatin (% sucrose): 5.80 % sucrose
[1]; pH 4.0, 40° C.
  Rate constant (k; day^−1) of sweetness loss: 0.003 day⁻¹
[1]; pH 4.0, 100 days storage at 40° C.
  Sweetness Retained (%): 78%
[2]; blend with cyclamates
  quantitative synergy with cyclamates: quantitatively synergistic
[2]; with aspartame, saccharin, acesulfame-K, sucralose, or carbohydrate sweeteners
  quantitative synergy with other sweeteners: no significant quantitative synergy
[3]
  degree of degradation of monatin: insignificant
[4]; 50° C., pH 3, 48 hours
  loss in monatin: 23%
[4]; 100° C., pH 3, 24 hours
  loss in monatin: nearly all monatin was lost
[4]; room temperature (25° C.), pH 3, 48 hours
  loss in monatin: 14%
